# Results as given in ChEMBL document CHEMBL1142045, “Carbonic anhydrase inhibitors. Interaction of isozymes I, II, IV, V, and IX with organic phosphates and phosphonates” (Bioorg Med Chem Lett, 2005).
# Legend:
# [1] = target: Carbonic anhydrase 1 (Homo sapiens) (UniProt P00915); assay: Activation constant towards human cytosolic carbonic anhydrase I; Activator
# Carbonic anhydrase 2 = Carbonic anhydrase 2 (Homo sapiens, UniProt P00918); assay: Binding affinity towards human cytosolic carbonic anhydrase II
# Carbonic anhydrase 4 = Carbonic anhydrase 4 (Homo sapiens, UniProt P22748); assay: Binding affinity towards human membrane associated carbonic anhydrase IV
# Chain of Carbonic anhydrase 4 (P22748 whole entry): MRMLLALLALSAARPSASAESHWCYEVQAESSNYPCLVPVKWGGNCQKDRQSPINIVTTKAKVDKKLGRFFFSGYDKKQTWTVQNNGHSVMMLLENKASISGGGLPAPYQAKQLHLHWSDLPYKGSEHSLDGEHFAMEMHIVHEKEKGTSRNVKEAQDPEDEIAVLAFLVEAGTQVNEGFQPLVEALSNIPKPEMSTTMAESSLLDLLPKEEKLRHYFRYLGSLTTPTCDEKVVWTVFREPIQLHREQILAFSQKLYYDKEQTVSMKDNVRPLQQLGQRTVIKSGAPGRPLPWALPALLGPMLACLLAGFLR
# [2] = target: Carbonic anhydrase 5A, mitochondrial (Homo sapiens, UniProt P35218); assay: Binding affinity towards recombinant human mitochondrial carbonic anhydrase V
# Chain of Carbonic anhydrase 5A, mitochondrial (P35218 whole entry): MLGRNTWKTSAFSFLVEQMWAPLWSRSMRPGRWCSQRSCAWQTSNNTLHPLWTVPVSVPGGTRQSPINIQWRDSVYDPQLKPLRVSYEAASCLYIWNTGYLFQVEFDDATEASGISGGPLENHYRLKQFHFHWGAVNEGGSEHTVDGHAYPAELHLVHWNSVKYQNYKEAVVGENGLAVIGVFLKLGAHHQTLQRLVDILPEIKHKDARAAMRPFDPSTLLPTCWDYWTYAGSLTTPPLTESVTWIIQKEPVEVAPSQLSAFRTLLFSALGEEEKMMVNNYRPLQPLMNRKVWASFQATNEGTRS
# Carbonic anhydrase 9 = Carbonic anhydrase 9 (Homo sapiens, UniProt Q16790); assay: Binding affinity owards recombinant human transmembrane carbonic anhydrase IX
# Chain of Carbonic anhydrase 1 (Homo sapiens) (P00915 2-261 limits assumed): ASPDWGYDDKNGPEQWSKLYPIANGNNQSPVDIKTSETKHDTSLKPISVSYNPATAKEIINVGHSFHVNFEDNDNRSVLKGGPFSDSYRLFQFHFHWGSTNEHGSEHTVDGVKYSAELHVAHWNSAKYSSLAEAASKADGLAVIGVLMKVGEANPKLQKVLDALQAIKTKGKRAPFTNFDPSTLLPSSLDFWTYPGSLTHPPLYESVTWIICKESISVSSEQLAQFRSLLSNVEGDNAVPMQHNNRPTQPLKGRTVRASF
compound,measurement,setting,value
CC(OP(=O)(O)O)C(N)C(=O)O (configuration not stated),KA,[1],0.5 mM
same,Ki,Carbonic anhydrase 2,1080 µM
same,Ki,Carbonic anhydrase 4,3180 µM
same,Ki,[2],850 µM
same,Ki,Carbonic anhydrase 9,1230 µM
N[C@@H](COP(=O)(O)O)C(=O)O [DEXFOSFOSERINE],KA,[1],0.1 mM
same,Ki,Carbonic anhydrase 2,420 µM
same,Ki,Carbonic anhydrase 4,4260 µM
same,Ki,[2],360 µM
same,Ki,Carbonic anhydrase 9,920 µM
O=C(O)P(=O)(O)O [FOSCARNET],KA,[1],0.012 mM
same,Ki,[2],41700 µM
O=P(O)(O)CP(=O)(O)O [MEDRONIC ACID],KA,[1],0.2 mM
same,Ki,Carbonic anhydrase 2,1250 µM
same,Ki,Carbonic anhydrase 4,5340 µM
same,Ki,[2],730 µM
same,Ki,Carbonic anhydrase 9,860 µM
O=C(O)C[C@H](NC(=O)CP(=O)(O)O)C(=O)O [PALA],KA,[1],0.1 mM
same,Ki,Carbonic anhydrase 2,7.8 µM
same,Ki,Carbonic anhydrase 4,0.079 µM
same,Ki,[2],370 µM
same,Ki,Carbonic anhydrase 9,2250 µM
O=P(O)(O)c1ccccc1 [PHENYLPHOSPHONIC ACID],KA,[1],0.0001 mM
same,Ki,Carbonic anhydrase 2,0.099 µM
same,Ki,Carbonic anhydrase 4,5.4 µM
same,Ki,[2],90 µM
same,Ki,Carbonic anhydrase 9,2210 µM
